Patent US8609672B2, “Piperazinylpyrimidine analogues as protein kinase inhibitors” (University of the Pacific, priority 2010, dated 2013)

Assays:
NCI-H23 = test: NCI-60 SRB growth inhibition: NCI-H23; type: cell-based, human; settings: NCI-H23, Non-small cell lung cancer; 48 hours treatment
HOP-92 = test: NCI-60 SRB growth inhibition: HOP-92; type: cell-based, human; settings: HOP-92, Non-small cell lung cancer; 48 hours treatment
NCI/ADR-RES = test: NCI-60 SRB growth inhibition: NCI/ADR-RES; type: cell-based, human; settings: Ovarian cancer, 48 hours treatment; for CC50: Homo sapiens, read-out: LC50 (the source's name)
NCI-H226 = test: NCI-60 SRB growth inhibition: NCI-H226; type: cell-based, human; settings: NCI-H226, Non-small cell lung cancer; 48 hours treatment
SN12C = test: NCI-60 SRB growth inhibition: SN12C; type: cell-based, human; settings: Renal cancer, 48 hours treatment; for CC50: Homo sapiens, read-out: LC50 (the source's name)
SNB-75 = test: NCI-60 SRB growth inhibition: SNB-75; type: cell-based, human; settings: SNB-75, CNS cancer, 48 hours treatment; for CC50: Homo sapiens, read-out: LC50 (the source's name)
CAKI-1 = test: NCI-60 SRB growth inhibition: CAKI-1; type: cell-based, human; settings: CAKI-1, Renal cancer; 48 hours treatment
NCI-60 cell line panel = test: NCI-60 SRB growth inhibition: mean over the panel; type: cell-based, human; settings: mean over NCI-60 cell lines, 48 hours treatment; for GI50 / CC50: Homo sapiens; for CC50: read-out: Mean LC50
MDA-MB-435 = test: NCI-60 SRB growth inhibition: MDA-MB-435; type: cell-based, human; settings: MDA-MB-435, Melanoma, 48 hours treatment; for CC50: Homo sapiens, read-out: LC50 (the source's name)
CCRF-CEM = test: NCI-60 SRB growth inhibition: CCRF-CEM; type: cell-based, human; settings: Leukemia, 48 hours treatment
MALME-3M = test: NCI-60 SRB growth inhibition: MALME-3M; type: cell-based, human; settings: Melanoma, 48 hours treatment
ABL1(F317I) = target: T1, ABL1(F317I) (Homo sapiens, UniProt P00519, F317I); test: Kinase binding screening: ABL1(F317I); settings: 10 μM compound, phosphorylated form, read-out: B-POC (binding percentage of control)
T1 construct: purchased Ambit Bioscience (assay service)
T1 sequence (P00519 whole entry F317I): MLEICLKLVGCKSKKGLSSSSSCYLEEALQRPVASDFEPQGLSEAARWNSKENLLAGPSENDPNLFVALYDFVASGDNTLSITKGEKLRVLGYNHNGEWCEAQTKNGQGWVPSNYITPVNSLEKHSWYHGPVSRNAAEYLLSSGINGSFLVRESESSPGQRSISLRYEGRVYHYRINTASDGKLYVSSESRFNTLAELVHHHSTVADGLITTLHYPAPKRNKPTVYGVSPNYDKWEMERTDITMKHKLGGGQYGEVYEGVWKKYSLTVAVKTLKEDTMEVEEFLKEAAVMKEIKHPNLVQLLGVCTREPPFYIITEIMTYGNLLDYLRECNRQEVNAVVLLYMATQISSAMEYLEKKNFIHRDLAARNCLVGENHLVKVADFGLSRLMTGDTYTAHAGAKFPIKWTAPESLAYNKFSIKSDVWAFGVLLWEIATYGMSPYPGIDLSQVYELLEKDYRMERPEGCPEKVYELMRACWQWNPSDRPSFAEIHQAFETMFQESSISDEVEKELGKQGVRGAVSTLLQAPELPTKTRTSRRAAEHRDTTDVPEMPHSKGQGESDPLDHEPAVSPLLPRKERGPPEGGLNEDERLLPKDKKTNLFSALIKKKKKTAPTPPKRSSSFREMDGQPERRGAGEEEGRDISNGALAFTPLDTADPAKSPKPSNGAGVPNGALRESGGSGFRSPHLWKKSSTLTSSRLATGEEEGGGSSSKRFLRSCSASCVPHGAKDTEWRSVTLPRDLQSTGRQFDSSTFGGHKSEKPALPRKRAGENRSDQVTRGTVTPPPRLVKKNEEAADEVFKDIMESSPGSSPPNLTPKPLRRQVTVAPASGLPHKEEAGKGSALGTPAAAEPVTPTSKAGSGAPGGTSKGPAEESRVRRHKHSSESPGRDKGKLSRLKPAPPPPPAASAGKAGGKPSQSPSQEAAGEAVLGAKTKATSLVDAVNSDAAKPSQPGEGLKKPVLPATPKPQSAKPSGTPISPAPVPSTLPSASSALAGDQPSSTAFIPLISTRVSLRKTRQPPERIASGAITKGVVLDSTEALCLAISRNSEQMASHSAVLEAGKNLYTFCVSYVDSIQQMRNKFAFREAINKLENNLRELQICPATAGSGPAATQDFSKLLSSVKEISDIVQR
Method: (§1) Biotinylated kinase ligand was immobilized onto streptavidin coated magnetic beads and washed with blocking buffer. The liganded beads were then incubated with DNA-tagged kinase in the presence of test compound for 1 h at room temperature. Binding reactions were carried out in 20% Seablock, 0.17×PBS, 0.005% Tween 20, 6 mM DTT, in a final volume of 0.04 mL. Beads were then washed with wash buffer (PBS, 0.05% Tween 20), and then incubated with elution buffer (PBS, 0.05% Tween […] non-biotinylated kinase ligand) and eluted. The kinase concentration in the eluate was then measured by quantitative PCR. […] The results of this single dose screening are reported in the form of binding percentage of control (B-POC) which is defined as follows:
(§2) [formula] The negative control signal is obtained by the vehicle and corresponds to B-POC=100%. The positive signal control is detected by a binding positive compound and is B-POC 0%. The B-POC results are the average of duplicate measurements. Only interactions with […] were considered significant and thus used for calculating the selectivity scores (Table 1) of the test compounds as follows:
(§3) [formula] […] The Kd is then calculated according to the following equation:
(§4) [formula] hill slope=−1. A non-linear least square fit with the Levenberg-Marquardt algorithm was implemented to fit the curves (FIG. 3). […]

OVCAR-8 = test: NCI-60 SRB growth inhibition: OVCAR-8; type: cell-based, human; settings: OVCAR-8, Ovarian cancer, 48 hours treatment; for CC50: Homo sapiens, read-out: LC50 (the source's name)
A498 = test: NCI-60 SRB growth inhibition: A498; type: cell-based, human; settings: A498, Renal cancer, 48 hours treatment; for CC50: Homo sapiens, read-out: LC50 (the source's name)
LOX 1MVI = test: NCI-60 SRB growth inhibition: LOX 1MVI; type: cell-based, human; settings: Melanoma, 48 hours treatment
BT-549 = test: NCI-60 SRB growth inhibition: BT-549; type: cell-based, human; settings: for TGI: BT-549, Breast cancer, 48 hours treatment; for CC50: Homo sapiens, BT-549, 48 h, read-out: LC50 (the source's name)
MDA-MB-468 [1] = test: Annexin V assay, MDA-MB-468 cells; type: cell-based, human; settings: MDA-MB-468, higher doses, within 24 hours
MDA-MB-468 [2] = test: Cell cycle analysis of MDA-MB-468 cells; type: cell-based, human; settings: MDA-MB-468, within 24 hours
ABL1(F317L) = target: T2, ABL1(F317L) (Homo sapiens, UniProt P00519, F317L); test: Kinase binding screening: ABL1(F317L); settings: 10 μM compound, phosphorylated form, read-out: B-POC (binding percentage of control)
T2 construct: purchased Ambit Bioscience (assay service)
T2 sequence (P00519 whole entry F317L): as the sequence (P00519 whole entry F317I) above, with I317L counted along it
Method: as §1, §2, §3, §4

| SMILES | TGI (NCI-H23) [µM] | CC50 (NCI/ADR-RES) [µM] | TGI (NCI/ADR-RES) [µM] | TGI (NCI-H226) [µM] | CC50 (SN12C) [µM] | TGI (SN12C) [µM] | CC50 (SNB-75) [µM] | TGI (SNB-75) [µM] | TGI (CAKI-1) [µM] | GI50 (NCI-60 cell line panel) [µM] | Mean TGI (NCI-60 cell line panel) [µM] | CC50 (MDA-MB-435) [µM] | TGI (MDA-MB-435) [µM] | TGI (MALME-3M) [µM] | CC50 (OVCAR-8) [µM] | TGI (OVCAR-8) [µM] | TGI (A498) [µM] | CC50 (A498) [µM] | TGI (LOX 1MVI) [µM] | TGI (BT-549) [µM] | further results |
| --- | --- | --- | --- | --- | --- | --- | --- | --- | --- | --- | --- | --- | --- | --- | --- | --- | --- | --- | --- | --- | --- |
| c1ccc(Cc2cnc(N3CCN(c4ncnc5ccccc45)CC3)nc2)cc1 [Compound 4, 4-(4-(5-benzylpyrimidin-2-yl)piperazin-1-yl)quinazoline] | 30.80 | 66.4 | 17.60 | 48.40 | 54.8 | 24.40 | > 100 | 78.20 | 39.30 | 5.24 | 37.15 | 91.4 | 27.50 | 33.60 | 71.3 | 25.60 | 24.20 | 50.1 | 19.60 | 18.40 | TGI (HOP-92): 24.20 µM; CC50 (NCI-60 cell line panel): 81.3 µM; TGI (CCRF-CEM): 64.40 µM; remaining activity at 10 µM (ABL1(F317I)): 30%; CC50 (BT-549): 43 µM |
| CCc1cnc(N2CCN(C(=O)c3ccc(CNc4ncnc5ccccc45)cc3)CC2)nc1 [Compound 15, (4-(5-ethylpyrimidin-2-yl)piperazin-1-yl)(4-((quinazolin-4-ylamino)methyl)phenyl)methanone] | 33.30 | > 100 | 21.50 | >100 | > 100 | 59.00 | > 100 | 58.20 | 94.80 | 4.46 | 51.28 | > 100 | >100 | 42.20 | > 100 | >100 | >100 | > 100 | 28.70 | 10.70 | TGI (HOP-92): 80.09 µM; apoptosis (Annexin V) (MDA-MB-468 [1]): a significant fraction of the tumor cells undergo apoptosis; CC50 (NCI-60 cell line panel): > 100 µM; TGI (CCRF-CEM): 60.90 µM; cell cycle effect (MDA-MB-468 [2]): arrest at the G2/M phase of the cell cycle; CC50 (BT-549): > 100 µM; remaining activity at 10 µM (ABL1(F317L)): 6.8% |
| O=C(c1cccc(Nc2ncnc3ccccc23)c1)N1CCN(c2ncc(Cc3ccccc3)cn2)CC1 [Compound 16, (4-(5-benzylpyrimidin-2-yl)piperazin-1-yl)(3-(quinazolin-4-ylamino)phenyl)methanone] | 2.69 | > 100 | 8.51 | 2.09 | > 100 | 7.08 | > 100 | 5.89 | 1.91 | 1.05 | 3.24 | 4.57 | 2.14 | 2.57 | > 100 | 3.31 | 5.37 | > 100 | 2.45 | 1.74 | remaining activity at 10 µM (ABL1(F317I)): 20%; CC50 (BT-549): 5.37 µM |
